Source: patent publication US20120190752A1, “EXO-S-MECAMYLAMINE METHOD, USE, AND COMPOUND FOR TREATMENT” (Targacept Inc., priority 2009, published 2012)

Test system: subjects with major depressive disorder (MDD) who were inadequate responders to citalopram
Assay: Individual HAMD-17 factor (subscale) scores, exploratory analysis
Format: in vivo, human
Experimental: In more detail, a multi-center double-blind, randomized, placebo-controlled, parallel group, flexible dose titration study of TC-5214 as adjunctive therapy in subjects with major depressive disorder (MDD) who were inadequate responders to citalopram was conducted in centers in the US and India. The study consisted of a screening period, baseline/washout period, open-label phase, double-blind phase, and a follow-up visit. Subject participation in the study could continue for up to 16 weeks of treatment. Following a washout period of up to 28 days for other antidepressants, subjects with MDD and a MADRS total score >/=28 and a Clinical Global Impression-Severity (CGI-S) score >/=4 were enrolled on Day 1 into an open-label citalopram-only phase of the study. This phase lasted 8 weeks, with citalopram (CIT) dose increased from a once-daily dose of 20 mg (Day 1 through Week 4) to 40 mg (Week 4 through Week 8). A total of 579 subjects entered the open-label citalopram phase. At Week 8, subjects who tolerated 40 mg CIT, but whose MADRS score was reduced <50% from baseline and no lower than 17, and CGI-S≧4, were considered inadequate responders. These subjects (n=270) were randomized in a double-blind fashion to receive either placebo or TC-5214-23 as add-on therapy to continued CIT. The double-blind phase of the study also lasted 8 weeks (Week 8 to Week 16). Study drug, TC-5214-23 or placebo, was started at 2 mg daily (1 mg twice per day [BID] dosing), added on to continuing CIT (40 mg PO qd). After 2 weeks of treatment, the dose of TC-5214 could be increased to 4 mg (2 mg BID) or continued unchanged, with up-titration based upon good tolerability and inadequate therapeutic response. After a further 2 weeks, the dose of TC-5214 could be increased again to 8 mg (4 mg BID) if judged appropriate by the investigator, based upon good tolerability and inadequate therapeutic response. At any time during the double-blind phase of the study, placebo or TC-5214-23 could be reduced to the previous dose level following the emergence of unacceptable adverse events (AEs). […] At this follow-up, any signs or symptoms of relapse were evaluated. If a subject was prematurely discontinued from the study between Week 8 and Week 16 for any reason, the investigator was to make every effort to perform all evaluations as per protocol, assuming the subject had reached the end of the double-blind add-on treatment phase. These evaluations were to be made as soon as possible and within 2 weeks of discontinuation. […] There was no meaningful difference in results as a function of age, gender, site, or smoking status. An exploratory analysis assessed the differences in the treatment groups from Week 8 (double-blind baseline) to Week 16 for each individual HAMD-17 factor score.

[1] = ITT population, Week 8 (double-blind baseline) to Week 16

CNC1(C)C2CCC(C2)C1(C)C (stereo in doubt) [TC-5214, (S)—N,2,3,3-tetramethylnorbornan-2-amine]
HAMD-17 item 1 Depression-Mood: Adjusted Mean Change TC-5214—Placebo (SD) [1]: −0.69 (0.86)
HAMD-17 item 1 Depression-Mood: Effect Size [1]: 0.80
HAMD-17 item 2 Feelings of Guilt: Adjusted Mean Change TC-5214—Placebo (SD) [1]: −0.43 (0.72)
HAMD-17 item 2 Feelings of Guilt: Effect Size [1]: 0.60
HAMD-17 item 3 Suicide: Adjusted Mean Change TC-5214—Placebo (SD) [1]: −0.07 (0.40)
HAMD-17 item 3 Suicide: Effect Size [1]: 0.18
HAMD-17 item 4 Early Insomnia: Adjusted Mean Change TC-5214—Placebo (SD) [1]: −0.41 (0.64)
HAMD-17 item 4 Early Insomnia: Effect Size [1]: 0.64
HAMD-17 item 5 Middle Insomnia: Adjusted Mean Change TC-5214—Placebo (SD) [1]: −0.42 (0.64)
HAMD-17 item 5 Middle Insomnia: Effect Size [1]: 0.66
HAMD-17 item 6 Late Insomnia: Adjusted Mean Change TC-5214—Placebo (SD) [1]: −0.35 (0.63)
HAMD-17 item 6 Late Insomnia: Effect Size [1]: 0.56
HAMD-17 item 7 Work and Activities: Adjusted Mean Change TC-5214—Placebo (SD) [1]: −0.49 (0.86)
HAMD-17 item 7 Work and Activities: Effect Size [1]: 0.57
HAMD-17 item 8 Retardation: Adjusted Mean Change TC-5214—Placebo (SD) [1]: −0.31 (0.59)
HAMD-17 item 8 Retardation: Effect Size [1]: 0.53
HAMD-17 item 9 Agitation: Adjusted Mean Change TC-5214—Placebo (SD) [1]: −0.40 (0.68)
HAMD-17 item 9 Agitation: Effect Size [1]: 0.59
HAMD-17 item 10 Psychic Anxiety: Adjusted Mean Change TC-5214—Placebo (SD) [1]: −0.59 (0.77)
HAMD-17 item 10 Psychic Anxiety: Effect Size [1]: 0.77
HAMD-17 item 11 Somatic Symptoms: Anxiety: Adjusted Mean Change TC-5214—Placebo (SD) [1]: −0.41 (0.70)
HAMD-17 item 11 Somatic Symptoms: Anxiety: Effect Size [1]: 0.59
HAMD-17 item 12 Somatic Symptoms: GI: Adjusted Mean Change TC-5214—Placebo (SD) [1]: −0.23 (0.52)
HAMD-17 item 12 Somatic Symptoms: GI: Effect Size [1]: 0.44
HAMD-17 item 13 Somatic Symptoms: General: Adjusted Mean Change TC-5214—Placebo (SD) [1]: −0.24 (0.66)
HAMD-17 item 13 Somatic Symptoms: General: Effect Size [1]: 0.36
HAMD-17 item 14 Somatic Symptoms: Genital: Adjusted Mean Change TC-5214—Placebo (SD) [1]: −0.34 (0.62)
HAMD-17 item 14 Somatic Symptoms: Genital: Effect Size [1]: 0.55
HAMD-17 item 15 Hypochondriasis: Adjusted Mean Change TC-5214—Placebo (SD) [1]: −0.48 (0.74)
HAMD-17 item 15 Hypochondriasis: Effect Size [1]: 0.65
HAMD-17 item 16 Weight Loss: Adjusted Mean Change TC-5214—Placebo (SD) [1]: −0.20 (0.53)
HAMD-17 item 16 Weight Loss: Effect Size [1]: 0.38
HAMD-17 item 17 Insight: Adjusted Mean Change TC-5214—Placebo (SD) [1]: 0.03 (0.31)
HAMD-17 item 17 Insight: Effect Size [1]: 0.10
each HAMD-17 subscale score change from baseline compared with placebo (ITT, with the exception of the Suicide and Insight subscales, result in words): statistically significant decreases (improvements)
